Experimental data reported in US7300932B2, “Pyrrolo[1,2-b]pyridazine derivatives” (Japan Tobacco Inc., priority 2003, dated 2007).

target: T1, human DGAT1 (Homo sapiens, UniProt O75907); test: DGAT Scintillation Proximity Assay (SPA) with membranes of insect cells expressing human flagtag DGAT1; format: biochemical; details: DGAT inhibition
T1 construct: made in house; host or cells: insect cells (e.g., sf9, sf21, or High Five), Bac-to-Bac baculovirus; total cell membranes
T1 sequence (O75907 1-488): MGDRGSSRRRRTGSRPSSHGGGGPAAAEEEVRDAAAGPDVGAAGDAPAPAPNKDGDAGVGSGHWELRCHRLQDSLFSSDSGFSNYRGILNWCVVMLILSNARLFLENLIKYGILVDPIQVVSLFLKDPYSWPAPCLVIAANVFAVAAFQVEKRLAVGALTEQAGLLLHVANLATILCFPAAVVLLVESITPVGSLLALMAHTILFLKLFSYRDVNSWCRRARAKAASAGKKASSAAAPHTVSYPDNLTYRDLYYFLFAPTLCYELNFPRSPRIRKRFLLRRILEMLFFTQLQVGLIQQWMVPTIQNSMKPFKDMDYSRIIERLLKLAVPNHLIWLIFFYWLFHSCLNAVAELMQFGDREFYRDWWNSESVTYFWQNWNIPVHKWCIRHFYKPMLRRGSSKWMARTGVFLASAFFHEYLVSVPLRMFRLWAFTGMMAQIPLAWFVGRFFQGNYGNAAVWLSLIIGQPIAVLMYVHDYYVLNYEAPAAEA
Method: In such an assay human DGAT1 is cloned from a human liver cDNA library. PCR is used to add a restriction site and flag epitope at the most 5′ end and a restriction site at the 3′ end of the sequence. Thereafter, human flagtag (FT) DGAT1 baculovirus may be generated using a Bac-to-Bac Baculovirus Expression System® (Invitrogen). Insect cells (e.g., sf9, sf21, or High Five) are infected for 24 to 72 h and collected by centrifugation. Cell pellets are resuspended in homogenization buffer and lysed using a homogenization device, such as a Microfluidizer. Total cell membranes are collected by ultracentrifugation at 45,000 rpm for 1 h.
A small aliquot (0.2 μg/well) of membrane is incubated with 10 μM compound or mercuric chloride (as positive control for inhibition) in the presence of enzyme substrate, dioleoyl glycerol (200 μM) in 384 well plates, final volume 50 μL per well. […] The reaction is stopped by adding Wheat Germ Agglutinin (WGA) SPA beads (0.2 mg) in mercuric chloride. Cell membranes are allowed to couple to the beads overnight. The signal can be measured using, for example, a Chemiluminescence Image Plate Reader (CLIPR) or TopCount device.

Structure (SMILES)	IC50
CCCc1c(-c2nnc(C)o2)c(C(=O)OCC)c2c(-c3ccccc3)cc(N3CCOCC3)nn12 [Example 78, 6-(5-Methyl-[1,3,4]oxadiazol-2-yl)-2-morpholin-4-yl-4-phenyl-7-propyl-pyrrolo[1,2-b]pyridazine-5-carboxylic acid ethyl ester]	> 500 nM
CCCc1c(-c2ncc(-c3ccccc3)o2)c(C(=O)OCC)c2c(-c3ccccc3)cc(N3CCOCC3)nn12 [Example 80, 2-Morpholin-4-yl-4-phenyl-6-(5-phenyl-oxazol-2-yl)-7-propyl-pyrrolo[1,2-b]pyridazine-5-carboxylic acid ethyl ester]	> 500 nM
CCCc1c(C(=O)OCC)c(C(=O)OCC)c2c(C3CCCCC3)cc(N3CCOCC3)nn12 [Example 90, 4-Cyclohexyl-2-morpholin-4-yl-7-propyl-pyrrolo[1,2-b]pyridazine-5,6-dicarboxylic acid diethyl ester]	< 500 nM
CCCc1c(C(=O)OCC)c(C(=O)OCC)c2c(-c3ccccc3)cc(N3CCCC3)nn12 [Example 96, 4-Phenyl-7-propyl-2-pyrrolidin-1-yl-pyrrolo[1,2-b]pyridazine-5,6-dicarboxylic acid diethyl ester]	< 500 nM
CCOC(=O)c1c(C(=O)OCC)c2c(-c3ccccc3)cc(N3CCOCC3)nn2c1C [Example 24, 7-Methyl-2-morpholin-4-yl-4-phenyl-pyrrolo[1,2-b]pyridazine-5,6-dicarboxylic acid diethyl ester]	> 500 nM
CCCc1c(C(=O)OCC)c(C(=O)OCC)c2c(-c3ccccc3)cc(N3CCC3)nn12 [Example 95, 2-Azetidin-1-yl-4-phenyl-7-propyl-pyrrolo[1,2-b]pyridazine-5,6-dicarboxylic acid diethyl ester]	> 500 nM
CCOC(=O)c1c(C(=O)OCC)c2c(-c3ccccc3)cc(N3CCOCC3)nn2c1C1CC1 [Example 8, 7-Cyclopropyl-2-morpholin-4-yl-4-phenyl-pyrrolo[1,2-b]pyridazine-5,6-dicarboxylic acid diethyl ester]	> 500 nM
